# “Also recorded” adds a separate entry of the source.
# Assays:
# p16 = experiment: Nuclear p16 immunohistochemistry of human skin biopsies after topical treatment; format: in vivo; details: formulation of 1 micromolar rapamycin, 0.5 cc daily, 240 days, vs vehicle control; FIG. 1
# Method: Human skin was treated with a formulation of 1 micromolar rapamycin or an identical formulation containing a vehicle control for 240 days. 0.5 cc of the formulation was applied daily. Skin biopsies (N=8) were processed for immunohistochemistry and nuclear p16 was quantified using the Leica Aperio software system.
# purpura = experiment: Recurrent purpura in a patient under topical treatment; format: in vivo, human; details: 0.001%, 4.5 months, one person with recurrent purpura; FIG. 8
# Method: (§1) Patients were provided with a proprietary topical formulation of rapamycin (0.001%; equivalent to 10 μM) or a placebo formulation that is identical with the exception that rapamycin was not included. For seborrheic keratosis, patients were instructed to apply the formulation to a localized area of the skin up to 1 cm around the lesion, in the evening before bed. Patients were instructed to apply the cream to the dorsal side of the hand once a day, in the evening before bed.
# A person was treated with rapamycin (0.001%) for 4.5 months. The patient was a cancer survivor, multiple round of chemotherapy, recurrent purpura with subsequent scarring. […] Treatment was discontinued at end of trial.
# cytokeratin 5/6 = experiment: Cytokeratin 5/6 staining of dorsal hand skin biopsies after topical cream; format: in vivo, human; details: topical cream 10 μM vs placebo, dorsal hand biopsy; FIG. 5 and FIG. 6 (40×)
# Method: as §1
# (§2) The cream included the following ingredients: Polyoxyethylene (40) stearate, Polyoxyethylene (20) sorbitan monooleate, glycerol monostearate, paraffin, cetyl alcohol, mineral oil, water, propylene glycol, sorbitol, glycerol, methylparaben.
# Human skin biopsies from the dorsal hand of a patient following the application of a topical cream either containing rapamycin (10 μM) or placebo were stained with antibodies recognizing cytokeratin 5/6 (brown staining), which is a marker for basal cells in the epidermis.
# human skin [1] = experiment: Histology (Hematoxylin Eosin stain) of dorsal hand skin biopsies after topical cream; format: in vivo; details: topical cream 10 μM vs placebo
# Method: as §1, §2
# (§3) Patients were provided with a 4 week supply of creams labeled by a number with no indication of whether they contained rapamycin. Patients were instructed to contact the study personnel if any irritation or negative reaction occurred at any time.
# Hematoxylin Eosin stain of human skin biopsies from the dorsal hand of a patient following the application of a topical cream either containing rapamycin (10 μM) or placebo are shown in FIG. 2. Histologic evidence of actinic (solar) elastoses is indicated with an arrow.
# 40× magnified images of human skin biopsies from the dorsal hand of a patient following the application of a topical cream either containing rapamycin (10 μM) or placebo are shown in FIG. 3.
# 40× magnified images of human skin biopsies from the dorsal hand of a patient following the application of a topical cream either containing rapamycin (10 μM) or placebo are shown in FIG. 4.
# human skin [2] = experiment: Clinical appearance of the hand after rapamycin cream versus placebo-treated hand; format: in vivo; details: 10 μM (0.001%) cream, 6 months, person, placebo on left hand; FIG. 7
# Method: as §1, §2, §3
# Placebo treated left hand is provided for comparison.
# human cells = experiment: Protection of cultured cells from UV-induced cell death; format: cell-based
# Method: Cells grown in the presence or absence of 1 nM rapamycin were exposed to increasing amounts of UV radiation and cell numbers were determined following 24 hours. […] In FIG. 9B, a representative photograph of the control culture 24 hours following UV is presented. Note the typical hallmarks of apoptosis including rounded floating cells and typical cell blebbing.
# [3] = dorsal hand biopsy, 40× images, FIG. 4
compound,measurement,setting,value
CO[C@H]1C[C@@H]2CC[C@@H](C)[C@@](O)(O2)C(=O)C(=O)N2CCCC[C@H]2C(=O)O[C@H]([C@H](C)C[C@@H]2CC[C@@H](O)[C@H](OC)C2)CC(=O)[C@H](C)/C=C(\C)[C@@H](O)[C@@H](OC)C(=O)[C@H](C)C[C@H](C)/C=C/C=C/C=C/1C [rapamycin],"p16 levels in human skin (nuclear p16, immunohistochemistry)",p16,reduced the p16 levels in human skin
same,purpura,purpura,significant reduction in purpura
same,location of cytokeratin 5/6 (CK 5/6) staining in the epidermis,cytokeratin 5/6,more focally located in the basal layer of the skin; also recorded: remained restricted to the basal layer
same,histological markers of aged/damaged skin (actinic (solar) elastoses),"human skin [1]; dorsal hand biopsies, multiple patients, FIG. 2",a reduction in the presence of these histological markers of aged/damaged skin
same,arrangement of the epithelial layer,"human skin [1]; dorsal hand biopsy, 40× images, FIG. 3",more orderly arrangement of the epithelial layer
same,arrangement of collagen fibers,human skin [1]; [3],more orderly arrangement of collagen fibers
same,solar elastoses,human skin [1]; [3],fewer solar elastoses
same,clinical improvement of the hand,human skin [2],clinical improvement
same,cell death following UV irradiation (percent cell loss),"human cells; 1 nM rapamycin, increasing amounts of UV radiation, cell numbers after 24 hours, P=0.0044, FIG. 9A",reduction in cell death
same,apoptotic cells in culture after UV,"human cells; culture grown in 1 nM rapamycin, 24 hours following UV, FIG. 9C",notable lack of apoptotic cells

# From patent US20210379026A1, “METHODS FOR TREATING OR PREVENTING SKIN CONDITIONS” (Drexel University, priority 2018, published 2021)
